The record followed here is paper PMC5240934, “Molecular Mechanism of Disease-Associated Mutations in the Pre-M1 Helix of NMDA Receptors and Potential Rescue Pharmacology” (PLoS Genetics, 2017).

Holding throughout (test): two-electrode voltage clamp, Xenopus oocytes
Holding throughout (type): cell-based

The target in test [1] is T1, human GluN1/GluN2A (Homo sapiens, UniProt Q05586+Q12879, Q12879:P552R).
T1 construct: gene GRIN1; full open reading frames in pCI-neo, cRNA in Xenopus laevis oocytes; di-heteromeric tetramer
The text has this: (§1) two-electrode voltage clamp, Xenopus oocytes on human GluN1/GluN2A

The target of test [2] is T2, human GluN1/GluN2A (Homo sapiens, UniProt Q05586+Q12879).
T2 construct: gene GRIN1; full open reading frames in pCI-neo, cRNA in Xenopus laevis oocytes; di-heteromeric tetramer
Description: as §1

In test [3] the target is T3, human GluN1/GluN2B (Homo sapiens, UniProt Q05586+Q13224, Q05586:D552E).
T3 construct: gene GRIN1; full open reading frames in pCI-neo, cRNA in Xenopus laevis oocytes; di-heteromeric tetramer
The text has this:
(§2) two-electrode voltage clamp, Xenopus oocytes on human GluN1/GluN2B

For test [4], the target named is T4, human GluN1/GluN2B (Homo sapiens, UniProt Q05586+Q13224, Q13224:P553R).
T4 construct: gene GRIN1; full open reading frames in pCI-neo, cRNA in Xenopus laevis oocytes; di-heteromeric tetramer
Description: as §2

In test [5] the target is T5, human GluN1/GluN2B (Homo sapiens, UniProt Q05586+Q13224, Q05586:P557R).
T5 construct: gene GRIN1; full open reading frames in pCI-neo, cRNA in Xenopus laevis oocytes; di-heteromeric tetramer
Description: as §2

In test [6] the target is T6, human GluN1/GluN2A (Homo sapiens, UniProt Q05586+Q12879, Q05586:D552E).
T6 construct: gene GRIN1; full open reading frames in pCI-neo, cRNA in Xenopus laevis oocytes; di-heteromeric tetramer
Description: as §1

The target in test [7] is T7, human GluN1/GluN2A (Homo sapiens, UniProt Q05586+Q12879, Q05586:P557R).
T7 construct: gene GRIN1; full open reading frames in pCI-neo, cRNA in Xenopus laevis oocytes; di-heteromeric tetramer
Description: as §1

For test [8], the target named is T8, human GluN1/GluN2A (Homo sapiens, UniProt Q05586+Q12879, Q12879:A548T).
T8 construct: gene GRIN1; full open reading frames in pCI-neo, cRNA in Xenopus laevis oocytes; di-heteromeric tetramer
Description: as §1

For test [9], the target named is T9, rat GluN1/GluN2D (Rattus norvegicus, UniProt P35439+Q62645).
T9 construct: gene Grin1; full-length subunits in pCI-neo, cRNA in Xenopus laevis oocytes; di-heteromeric tetramer
The source says: two-electrode voltage clamp, Xenopus oocytes on rat GluN1/GluN2D

[10] abbreviates: read-out: IC50 (n; max inhibition) / GluN2A-P552R.

The structures appear in SMILES notation. Like-named read-outs stand apart in the source and are kept apart here.

T1 sequence (Q12879 23-1464 P552R, other chains not shown): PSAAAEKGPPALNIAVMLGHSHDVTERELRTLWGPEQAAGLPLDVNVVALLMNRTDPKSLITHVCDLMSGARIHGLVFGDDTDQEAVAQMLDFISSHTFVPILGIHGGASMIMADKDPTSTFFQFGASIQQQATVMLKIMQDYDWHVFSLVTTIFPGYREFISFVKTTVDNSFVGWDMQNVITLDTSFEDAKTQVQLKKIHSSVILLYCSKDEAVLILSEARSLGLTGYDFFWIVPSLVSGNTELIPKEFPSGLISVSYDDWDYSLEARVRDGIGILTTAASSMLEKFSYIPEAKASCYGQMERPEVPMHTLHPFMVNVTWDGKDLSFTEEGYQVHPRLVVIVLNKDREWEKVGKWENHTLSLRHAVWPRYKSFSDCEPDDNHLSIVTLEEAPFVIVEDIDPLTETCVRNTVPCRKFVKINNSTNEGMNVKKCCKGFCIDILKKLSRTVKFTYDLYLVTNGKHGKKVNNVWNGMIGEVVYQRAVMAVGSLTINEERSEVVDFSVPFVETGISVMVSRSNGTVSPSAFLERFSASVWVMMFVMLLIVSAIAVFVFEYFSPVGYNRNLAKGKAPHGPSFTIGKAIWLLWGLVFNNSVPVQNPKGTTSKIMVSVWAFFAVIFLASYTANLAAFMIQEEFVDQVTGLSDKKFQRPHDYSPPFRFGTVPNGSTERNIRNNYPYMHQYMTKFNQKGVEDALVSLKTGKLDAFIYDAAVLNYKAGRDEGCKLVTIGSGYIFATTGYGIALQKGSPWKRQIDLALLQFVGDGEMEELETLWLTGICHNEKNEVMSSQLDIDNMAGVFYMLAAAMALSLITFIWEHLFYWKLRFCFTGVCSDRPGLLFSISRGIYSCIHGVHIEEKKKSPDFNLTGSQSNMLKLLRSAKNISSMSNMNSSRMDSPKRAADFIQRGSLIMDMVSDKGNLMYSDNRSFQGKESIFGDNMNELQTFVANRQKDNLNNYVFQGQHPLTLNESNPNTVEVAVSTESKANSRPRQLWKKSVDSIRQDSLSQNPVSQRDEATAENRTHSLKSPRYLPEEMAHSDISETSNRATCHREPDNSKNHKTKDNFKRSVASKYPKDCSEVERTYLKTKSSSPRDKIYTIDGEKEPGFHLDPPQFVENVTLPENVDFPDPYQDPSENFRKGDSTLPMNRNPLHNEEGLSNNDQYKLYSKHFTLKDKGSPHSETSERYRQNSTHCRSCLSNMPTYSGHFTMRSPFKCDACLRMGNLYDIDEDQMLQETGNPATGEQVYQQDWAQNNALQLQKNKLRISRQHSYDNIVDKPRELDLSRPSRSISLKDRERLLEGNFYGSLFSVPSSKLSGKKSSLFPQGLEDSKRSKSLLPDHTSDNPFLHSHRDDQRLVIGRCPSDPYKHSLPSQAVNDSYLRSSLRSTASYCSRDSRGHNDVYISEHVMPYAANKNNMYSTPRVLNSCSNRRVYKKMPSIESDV
T2 sequence (Q12879 23-1464, other chains not shown): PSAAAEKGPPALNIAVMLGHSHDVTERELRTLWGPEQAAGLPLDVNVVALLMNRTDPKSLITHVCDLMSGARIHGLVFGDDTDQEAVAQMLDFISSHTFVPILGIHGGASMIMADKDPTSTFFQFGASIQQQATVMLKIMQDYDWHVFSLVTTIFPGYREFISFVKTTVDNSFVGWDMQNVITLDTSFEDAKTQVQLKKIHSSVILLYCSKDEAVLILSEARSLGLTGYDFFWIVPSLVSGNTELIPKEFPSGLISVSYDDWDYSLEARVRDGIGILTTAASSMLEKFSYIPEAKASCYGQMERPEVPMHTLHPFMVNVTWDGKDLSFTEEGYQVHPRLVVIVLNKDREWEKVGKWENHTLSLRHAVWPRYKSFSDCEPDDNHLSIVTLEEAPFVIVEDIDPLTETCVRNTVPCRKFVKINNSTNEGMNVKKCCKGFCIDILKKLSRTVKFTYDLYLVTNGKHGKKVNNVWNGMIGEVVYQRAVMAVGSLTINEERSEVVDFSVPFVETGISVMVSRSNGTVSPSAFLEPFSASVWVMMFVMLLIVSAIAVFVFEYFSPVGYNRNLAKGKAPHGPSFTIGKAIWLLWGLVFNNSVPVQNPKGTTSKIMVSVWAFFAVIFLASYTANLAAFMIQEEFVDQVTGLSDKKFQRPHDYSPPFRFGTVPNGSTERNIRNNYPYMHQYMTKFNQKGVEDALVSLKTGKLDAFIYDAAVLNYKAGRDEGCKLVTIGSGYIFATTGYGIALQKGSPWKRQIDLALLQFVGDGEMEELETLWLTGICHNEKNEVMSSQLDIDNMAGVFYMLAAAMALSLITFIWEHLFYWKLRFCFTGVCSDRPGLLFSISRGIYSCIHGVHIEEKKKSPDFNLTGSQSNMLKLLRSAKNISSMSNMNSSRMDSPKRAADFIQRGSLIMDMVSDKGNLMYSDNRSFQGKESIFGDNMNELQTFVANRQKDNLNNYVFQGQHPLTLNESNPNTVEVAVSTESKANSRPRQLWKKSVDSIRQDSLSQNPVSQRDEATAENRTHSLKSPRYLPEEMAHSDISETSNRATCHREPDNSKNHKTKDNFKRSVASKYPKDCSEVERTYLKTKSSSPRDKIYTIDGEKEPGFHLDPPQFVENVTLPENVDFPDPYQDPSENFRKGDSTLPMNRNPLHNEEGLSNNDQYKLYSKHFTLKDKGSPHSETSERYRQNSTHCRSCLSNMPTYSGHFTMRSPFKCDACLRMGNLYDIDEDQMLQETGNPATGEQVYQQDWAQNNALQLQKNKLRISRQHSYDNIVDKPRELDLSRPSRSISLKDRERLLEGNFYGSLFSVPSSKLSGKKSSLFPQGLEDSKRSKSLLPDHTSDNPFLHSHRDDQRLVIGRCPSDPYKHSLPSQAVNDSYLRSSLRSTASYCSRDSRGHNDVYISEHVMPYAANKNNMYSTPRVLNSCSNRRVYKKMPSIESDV
T8 sequence (Q12879 23-1464 A548T, other chains not shown): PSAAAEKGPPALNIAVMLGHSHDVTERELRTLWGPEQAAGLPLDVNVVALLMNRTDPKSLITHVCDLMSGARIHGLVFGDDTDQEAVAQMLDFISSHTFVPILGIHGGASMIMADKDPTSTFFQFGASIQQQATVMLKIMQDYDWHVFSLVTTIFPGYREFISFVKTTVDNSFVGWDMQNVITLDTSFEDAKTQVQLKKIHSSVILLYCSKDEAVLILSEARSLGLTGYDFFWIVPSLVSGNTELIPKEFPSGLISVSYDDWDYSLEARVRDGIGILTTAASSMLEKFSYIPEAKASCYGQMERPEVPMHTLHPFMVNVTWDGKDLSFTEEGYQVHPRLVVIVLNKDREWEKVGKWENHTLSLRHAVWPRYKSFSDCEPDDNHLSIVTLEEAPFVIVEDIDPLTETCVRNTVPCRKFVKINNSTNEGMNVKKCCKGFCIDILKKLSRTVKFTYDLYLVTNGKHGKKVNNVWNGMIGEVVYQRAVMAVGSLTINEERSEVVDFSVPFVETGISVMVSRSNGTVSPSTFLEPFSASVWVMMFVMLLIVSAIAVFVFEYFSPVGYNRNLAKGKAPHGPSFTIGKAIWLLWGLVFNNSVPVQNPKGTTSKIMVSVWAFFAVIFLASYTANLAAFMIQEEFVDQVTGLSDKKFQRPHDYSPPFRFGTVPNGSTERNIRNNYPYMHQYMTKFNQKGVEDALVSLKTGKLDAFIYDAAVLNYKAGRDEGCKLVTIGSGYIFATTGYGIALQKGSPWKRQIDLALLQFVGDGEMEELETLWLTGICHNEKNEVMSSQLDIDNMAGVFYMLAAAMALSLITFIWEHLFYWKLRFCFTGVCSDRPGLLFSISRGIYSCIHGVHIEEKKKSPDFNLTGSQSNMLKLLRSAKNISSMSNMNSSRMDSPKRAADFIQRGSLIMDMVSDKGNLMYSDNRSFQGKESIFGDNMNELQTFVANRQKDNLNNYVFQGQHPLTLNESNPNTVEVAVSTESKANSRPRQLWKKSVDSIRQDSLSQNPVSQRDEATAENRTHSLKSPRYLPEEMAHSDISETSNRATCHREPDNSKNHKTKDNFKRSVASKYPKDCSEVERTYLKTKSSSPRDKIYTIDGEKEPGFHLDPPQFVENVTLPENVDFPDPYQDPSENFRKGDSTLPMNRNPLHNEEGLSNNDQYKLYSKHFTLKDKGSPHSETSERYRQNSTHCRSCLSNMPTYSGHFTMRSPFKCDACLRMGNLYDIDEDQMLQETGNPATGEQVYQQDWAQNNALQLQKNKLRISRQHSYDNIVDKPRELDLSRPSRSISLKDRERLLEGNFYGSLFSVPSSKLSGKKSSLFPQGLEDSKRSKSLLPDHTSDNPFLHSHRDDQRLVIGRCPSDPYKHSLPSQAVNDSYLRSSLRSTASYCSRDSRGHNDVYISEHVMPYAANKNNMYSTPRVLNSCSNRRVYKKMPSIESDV

Turning to `COc1ccc2c(c1)[C@]13CCCC[C@@H]1[C@H](C2)N(C)CC3` [Dextromethorphan], the IC50 in test [1] (setting [10]) came out at 15 ± 4.6 µM; in [2] (channel blocker, -40 mV, pH 7.4, no Mg2+, 23 °C, read-out: IC50 (n; max inhibition) / GluN2A-WT), 18 ± 2.9 µM.
Take `CNC1(c2ccccc2Cl)CCCCC1=O` (stereo not drawn) [Ketamine]: the IC50 in [1] came to 1.3 ± 0.2 µM; in [2], 4.7 ± 0.8 µM.
For `NCC(=O)O` [Glycine], the EC50 in [3] stood at 0.66 ± 0.07 µM; in test [4], 0.05 ± 0.01 µM; in test [5], 0.07 ± 0.01 µM; in test [6] it was 3.7 ± 0.32 µM; in [7], 0.18 ± 0.02 µM; in test [1] (read-out: Di-heteromeric NMDA Receptors / GluN2A-P552R) it was 0.06 ± 0.01 µM. Further, the EC50 in test [8] was found to be 2.4 ± 0.09 µM; in test [2], 1.4 ± 0.14 µM.
In turn, `N[C@@H](CCC(=O)O)C(=O)O` [Glutamate] came in with an EC50 in [9] of 0.4 ± 0.07 µM.
As for `NC12CC3CC(CC(C3)C1)C2` [Amantadine], the IC50 stood at 86 ± 22 µM in test [1] (setting [10]) and 126 ± 17 µM in [2] (read-out: IC50 (n; max inhibition) / GluN2A-WT).

Usually IC50 stands for the midpoint of a concentration-inhibition curve.
